Our source for the IC50 values is US20220220152A1, “BIVALENT ANTAGONISTS OF INHIBITORS OF APOPTOSIS PROTEINS” (Hepagene Therapeutics (HK) Limited, priority 2019, published 2022).

For orientation: IC50 means the midpoint of a concentration-inhibition curve. Low values mean inhibition by little substance, high ones a need for much substance.

SMILES strings stand for the structures.

One assay deals with T1, cIAP2-BIR3 (Homo sapiens, UniProt Q13489).
T1 construct: cIAP2-BIR3; purchased Reaction Biology APT-11-372
Briefly: cIAP2-BIR3 fluorescence polarization binding assay. To be noted: FP, probe AbuRPFK-5FAM (SM5F) 5 nM, cIAP2-BIR3 80 nM, 60 min at 25° C. The text has this:
(§1) IAPs are one main cause of cancer development and may result from overexpression of anti-apoptotic proteins. This protocol establishes three binding assays for […] Bir3 domain, cIAP1 and cIAP2 using FP (fluorescence polariation) technology. The fluorescence probe used is a synthetic peptide conjugated to 5-carboxyfluorescein (AbuRPFK-5FAM). The fluorescence polarization value (mP) was detected by Envision, which was used to reflect the binding degree of protein and fluorescent marker.
(§2) • a. Prepare 100 times of the final cpd concentration in appropriate tube and transfer 5 uL cpd to 45 μL 1× reaction buffer with 10% DMSO • b. The final reference cpd concentration is 10000, 3333.3, 1111.1, 370.4, 123.4, 41.2, 13.7, 4.57, 1.52, 0.51, 0.17 and 0 nM. So the 100 times of the concentration is 1000, 333.3, 111.1, 37.04, 12.34, 4.12, […], 0.15, 0.05, 0.017 and 0 μM. The final test cpds concentration is 3333.3, 1111.1, 370.4, 123.4, 41.2, 13.7, 4.57, 1.52, 0.51, 0.17, 0.057 and 0 nM. So the 100 times of the concentration is 333.3, 111.1, 37.04, 12.34, 4.12, […], 0.15, 0.05, 0.017, 0.0057 and […] • c. Add 8 μL/well each dose enzyme to 384 wen microplate (ProxiPlate-384 F Plus, 6008260) using multichannel pipette, prepared in Table 3. • d. Centrifuge at 1000 rpm • e. Add 2 μL/well cpd to 384 well microplate (ProxiPlate-384 F Plus, 6008260) using multichannel pipette, prepared in step a). • f. Centrifuge at 1000 rpm RT, 15 min. • g Start the assay by adding 10 uL/well substrate (prepared in Table 4) to the same 384 wen microplate using multichannel pipette. • h. Centrifuge at 1000 rpm. • i. Cover the assay plate and incubate for 60 min at 25° C. • j. Read on Envision 2104 for mP and plot the IC50s with mP values. • k. Data analysis: IC50s were determined based on a non-linear regression analysis of data collected.
(In general: In fluorescence polarisation assays a small probe gives low polarisation when free and higher when bound to something large.)

A further assay addresses T2, XIAP-BIR3 (Homo sapiens, UniProt P98170).
T2 construct: XIAP-BIR3; purchased Reaction Biology APT-11-374
Briefly: XIAP-BIR3 fluorescence polarization binding assay. The following applies: FP, probe AbuRPFK-5FAM (SM5F) 5 nM, XIAP-BIR3 40 nM, 60 min at 25° C.
Text: as §1, §2

For the next assay, the target named is T3, cIAP1-BIR3 (Homo sapiens, UniProt Q13490).
T3 construct: cIAP1-BIR3; purchased Reaction Biology APT-11-370
The experiment in a line: cIAP1-BIR3 fluorescence polarization binding assay. To be noted: FP, probe AbuRPFK-5FAM (SM5F) 5 nM, cIAP1-BIR3 15 nM, 60 min at 25° C.
Text: as §1, §2

T3 sequence (Q13490 253-363 limits assumed): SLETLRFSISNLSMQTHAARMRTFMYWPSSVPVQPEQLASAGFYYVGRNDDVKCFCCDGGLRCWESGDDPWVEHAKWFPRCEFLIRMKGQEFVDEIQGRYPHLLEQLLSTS
T1 sequence (Q13489 238-349 limits assumed): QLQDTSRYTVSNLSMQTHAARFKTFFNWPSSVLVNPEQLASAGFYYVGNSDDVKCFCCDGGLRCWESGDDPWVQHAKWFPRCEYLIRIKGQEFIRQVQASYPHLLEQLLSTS
T2 sequence (P98170 241-356 limits assumed): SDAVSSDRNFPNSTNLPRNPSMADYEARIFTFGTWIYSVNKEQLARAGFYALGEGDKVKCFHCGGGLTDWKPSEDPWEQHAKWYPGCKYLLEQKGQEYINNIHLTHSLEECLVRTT

In the case of `CN[C@@H](C)C(=O)N[C@H](C(=O)N1CCC[C@H]1C(=O)N[C@@H]1CCCc2c(OCCc3ccc(CCOc4cccc5c4CCC[C@H]5NC(=O)[C@@H]4CCCN4C(=O)[C@@H](NC(=O)[C@H](C)NC)C4CCCCC4)cc3)cccc21)C1CCCCC1` [Compound I, (2S)-1-[(2S)-2-Cyclohexyl-2-[(2S)-2-(methylamino)propanamido]acetyl]-N-[(1R)-5-[2-[4-(2-[[(5R)-5-[(2S)-1-[(2S)-2-cyclohexyl-2-[(2S)-2-(methylamino)propanamido]acetyl]pyrrolidine-2-amido]-5,6,7,8-tetrahydronaphthalen-1-yl]oxy]ethyl)phenyl]ethoxy]-1,2,3,4-tetrahydmnaphthalen-1-yl]pyrrolidine-2-carboxamide], the IC50 at cIAP2-BIR3 fell in the range of 10 to 100 nM; on XIAP-BIR3, 10 to 100 nM; on cIAP1-BIR3, 1 to 10 nM.

With `CN[C@@H](C)C(=O)N[C@H](C(=O)N1CCC[C@H]1C(=O)N[C@@H]1CCCc2c(OCCCCCOc3cccc4c3CCC[C@H]4NC(=O)[C@@H]3CCCN3C(=O)[C@@H](NC(=O)[C@H](C)NC)C3CCOCC3)cccc21)C1CCOCC1` [Compound I-A, (S)-1-((S)-2-((S)-2-(methylamino)propanamido)-2-(tetrahydro-2H-pyran-4-yl)acetyl)-N—((R)-5-((5-(((R)-5-((S)-1-((S)-2-((S)-2-(methylamino)propanamido)-2-(tetrahydro-2H-pyran-4-yl)acetyl)pyrrolidine-2-carboxamido)-5,6,7,8-tetrahydronaphthalen-1-yl)oxy)pentyl)oxy)-1,2,3,4-tetrahydmnaphthalen-1-yl)pyrrolidine-2-carboxamide], the IC50 on cIAP2-BIR3 lay in the range of 1 to 10 nM; at XIAP-BIR3, 10 to 100 nM; at cIAP1-BIR3, 1 to 10 nM.

Regarding `CN[C@@H](C)C(=O)N[C@H](C(=O)N1C[C@@H](O)C[C@H]1C(=O)N[C@@H]1CCCc2c(OCCCCCOc3cccc4c3CCC[C@H]4NC(=O)[C@@H]3C[C@H](O)CN3C(=O)[C@@H](NC(=O)[C@H](C)NC)C3CCCCC3)cccc21)C1CCCCC1` [Compound I-B, (2S,4S)-1-((S)-2-cyclohexyl-2-((S)-2-(methylamino)propanamido)acetyl)-N—((R)-5-((5-(((R)-5-((2S,4S)-1-((S)-2-cyclohexyl-2-((S)-2-(methylamino)propanamido)acetyl)-4-hydroxypyrrolidine-2-carboxamido)-5,6,7,8-tetrahydronaphthalen-1-yl)oxy)pentyl)oxy)-1,2,3,4-tetrahydronaphthalen-1-yl)-4-hydroxypyrrolidine-2-carboxamide], the results for the IC50 at cIAP2-BIR3, on XIAP-BIR3 and at cIAP1-BIR3 were 10 to 100 nM, 100 to 1000 nM and 1 to 10 nM, respectively.

As to `CN[C@@H](C)C(=O)N[C@@H](C)C(=O)N1CCC[C@H]1C(=O)N[C@@H]1CCCc2c(OCCCCCOc3cccc4c3CCC[C@H]4NC(=O)[C@@H]3CCCN3C(=O)[C@H](C)NC(=O)[C@H](C)NC)cccc21` [Compound I-C, (2S)-1-[(2S)-2-[(2S)-2-(methylamino)propanamido]popanoyl]-N-[(1R)-5-[(5-[[(5R)-5-[(2S)-1-[(2S)-2-[(2S)-2-(methylamino)propanamido]propanoyl]pyrrolidine-2-amido]-5,6,7,8-tetrahydmnaphthalen-1-yl]oxy]pentyl)oxy]-1,2,3,4-tetrahydronaphthalen-1-yl]pyrrolidine-2-carboxamide], the half-maximal inhibitory concentration (IC50) is 10 to 100 nM at cIAP2-BIR3, 100 to 1000 nM at XIAP-BIR3 and 1 to 10 nM at cIAP1-BIR3.

As to `CC[C@H](NC(=O)[C@H](C)NC)C(=O)N1CCC[C@H]1C(=O)N[C@@H]1CCCc2c(OCCCCCOc3cccc4c3CCC[C@H]4NC(=O)[C@@H]3CCCN3C(=O)[C@H](CC)NC(=O)[C@H](C)NC)cccc21` [Compound I-D, (2S)-1-[(2S)-2-[(2S)-2-(methylamino)propanamido]butanoyl]-N-[(1R)-5-[(5-[[(5R)-5-[(2S)-1-[(2S)-2-[(2S)-2-(methylamino)propanamido]butanoyl]pyrrolidine-2-amido]-5,6,7,8-tetrahydronaphthalen-1-yl]oxy]pentyl)oxy]-1,2,3,4-tetrahydronaphthalen-1-yl]pyrrolidine-2-carboxamide], the half-maximal inhibitory concentration (IC50) on cIAP2-BIR3 is 1 to 10 nM; on XIAP-BIR3, 10 to 100 nM; on cIAP1-BIR3, 1 to 10 nM.

Turning to `CN[C@@H](C)C(=O)N[C@H](C(=O)N1C[C@@H](O)C[C@H]1C(=O)N[C@@H]1CCCc2c(OC/C=C/COc3cccc4c3CCC[C@H]4NC(=O)[C@@H]3C[C@H](O)CN3C(=O)[C@@H](NC(=O)[C@H](C)NC)C3CCCCC3)cccc21)C1CCCCC1` [Compound I-E, (2S,4S)-1-[(2S)-2-cyclohexyl-2-[(2S)-2-(methylamino)propanamido]acetyl]-N-[(1R)-5-[[(2E)-4-[[(5R)-5-[(2S,4S)-1-[(2S)-2-cyclohexyl-2-[(2S)-2-(methylamino)propanamido]acetyl]-4-hydroxypyrrolidine-2-amido]-5,6,7,8-tetrahydronaphthalen-1-yl]oxy]but-2-en-1-yl]oxy]-1,2,3,4-tetrahydronaphthalen-1-yl]-4-hydroxypyrrolidine-2-carboxamide], the figures for the IC50 on cIAP2-BIR3, on XIAP-BIR3 and at cIAP1-BIR3 were 10 to 100 nM, 10 to 100 nM and 1 to 10 nM, respectively.

Regarding `CN[C@@H](C)C(=O)N[C@H](C(=O)N1CCC[C@H]1C(=O)N[C@@H]1CCCc2c(OCc3ccc(COc4cccc5c4CCC[C@H]5NC(=O)[C@@H]4CCCN4C(=O)[C@@H](NC(=O)[C@H](C)NC)C4CCCCC4)cc3)cccc21)C1CCCCC1` [Compound I-F, (2S)-1-[(2S)-2-cyclohexyl-2-[(2S)-2-(methylamino)propanamido]acetyl]-N-[(1R)-5-[[4-([[(5R)-5-[(2S)-1-[(2S)-2-cyclohexyl-2-[(2S)-2-(methylamino)propanamido]acetyl]pyrolidine-2-amido]-5,6,7,8-tetrahydronaphthalen-1-yl]oxy]methyl)phenyl]methoxy]-1,2,3,4-tetrahydronaphthalen-1-yl]pyrrolidine-2-carboxamide], the results for the IC50 on cIAP2-BIR3, at XIAP-BIR3 and at cIAP1-BIR3 were 100 to 1000 nM, 100 to 1000 nM and 1 to 10 nM, respectively.

`CN[C@@H](C)C(=O)N[C@H](C(=O)N1CCC[C@H]1C(=O)N[C@@H]1CCCc2c1cccc2N1CCN(c2cccc3c2CCC[C@H]3NC(=O)[C@@H]2CCCN2C(=O)[C@@H](NC(=O)[C@H](C)NC)C2CCCCC2)CC1)C1CCCCC1` [Compound VIII-C, (2S,2'S)—N,N′-((1R,1′R)-piperazine-1,4-diylbis(1,2,3,4-tetrahydronaphthalene-5,1-diyl))bis(1-((S)-2-cyclohexyl-2-((S)-2-(methylamino)propanamido)acetyl)pyrrolidine-2-carboxamide)]: on cIAP1-BIR3, the concentration for half-maximal inhibition (IC50) fell in the range of 1 to 10 nM.

Turning to `CN[C@@H](C)C(=O)N[C@H](C(=O)N1CCC[C@H]1C(=O)N[C@@H]1CCCc2c1cccc2N1CCN(c2cccc3c2CCC[C@H]3NC(=O)[C@@H]2CCCN2C(=O)[C@@H](NC(=O)[C@H](C)NC)C(C)(C)C)CC1)C(C)(C)C` [Compound VIII-D, (2S,2′S)—N,N′-((1R,1′R)-piperazine-1,4-diylbis(1,2,3,4-tetrahydronaphthalene-5,1-diyl))bis(1-((S)-3,3-dimethyl-2-((S)-2-(methylamino)propanamido)butanoyl)pyrolidine-2-carboxamide)], at cIAP1-BIR3, the 50% inhibitory concentration (IC50) fell in the range of 1 to 10 nM.

Compound `CC[C@H](NC(=O)[C@H](C)NC)C(=O)N1CCC[C@H]1C(=O)N[C@@H]1CCCc2c1cccc2N1CCN(c2cccc3c2CCC[C@H]3NC(=O)[C@@H]2CCCN2C(=O)[C@H](CC)NC(=O)[C@H](C)NC)CC1` [VIII-E, (2S,2'S)—N,N′-((1R,1′R)-piperazine-1,4-diylbis(1,2,3,4-tetrahydonaphthalene-5,1-diyl))bis(1-((S)-2-((S)-2-(methylamino)propanamido)butanoyl)pyrrolidine-2-carboxamide)] returned an IC50 at cIAP1-BIR3 of 1 to 10 nM.

As to `CN[C@@H](C)C(=O)N[C@H](C(=O)N1CCC[C@H]1C(=O)N[C@@H]1CCCc2c1cccc2N1CCN(c2cccc3c2CCC[C@H]3NC(=O)[C@@H]2CCCN2C(=O)[C@@H](NC(=O)[C@H](C)NC)C(C)C)CC1)C(C)C` [VIII-F, (2S,2'S)—N,N′-((1R,1′R)-piperazine-1,4-diylbis(1,2,3,4-tetrahydonaphthalene-5,1-diyl))bis(1-(methyl-L-alanyl-L-valyl)pyrrolidine-2-carboxamide)], on cIAP1-BIR3, the IC50 was in the range of 1 to 10 nM.
